Measured values reported in patent US10294202B2, “Pyrrolidinones as herbicides” (FMC Corporation, priority 2013, dated 2019).

Columns and labels:
pigweed = experiment: Test A pre-/postemergence herbicide test; assay type: in vivo, Amaranthus retroflexus
How it was run: (§1)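 Greenhouse pot test with pre- and postemergence application of surfactant-containing solvent formulations. Postemergence plants were 2–10 cm, one- to two-leaf stage. Response scored visually after ~10 days, 0 (no effect) to 100 (complete control).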

soybean = experiment: Test C pre-/postemergence herbicide test; assay type: in vivo, Glycine max; details: Preemergence
How it was run: (§2)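 Greenhouse pots; formulation = non-phytotoxic solvent mix + surfactant. PRE onto seeds in loam:sand; POST at 1–4 leaves (2–18 cm) in peat moss/vermiculite medium. Read-out: visual % control vs untreated, day 13–15.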

morningglory = experiment: Test C pre-/postemergence herbicide test; assay type: in vivo, Ipomoea coccinea; details: Preemergence
How it was run: as §2

wheat = experiment: Test A pre-/postemergence herbicide test; assay type: in vivo, Triticum aestivum; details: Postemergence
How it was run: as §1

galium = experiment: Test C pre-/postemergence herbicide test; assay type: in vivo, Galium aparine; details: Preemergence
How it was run: as §2

wheat (winter wheat) = experiment: Test C pre-/postemergence herbicide test; assay type: in vivo, Triticum aestivum; details: Preemergence
How it was run: as §2

barnyardgrass = experiment: Test A pre-/postemergence herbicide test; assay type: in vivo, Echinochloa crus-galli
How it was run: as §1

johnsongrass = experiment: Test C pre-/postemergence herbicide test; assay type: in vivo, Sorghum halepense; details: Preemergence
How it was run: as §2

crabgrass, large = experiment: Test C pre-/postemergence herbicide test; assay type: in vivo, Digitaria sanguinalis; details: Preemergence
How it was run: as §2

ryegrass, Italian = experiment: Test C pre-/postemergence herbicide test; assay type: in vivo, Lolium multiflorum; details: Preemergence
How it was run: as §2

corn [1] = experiment: Test C pre-/postemergence herbicide test; assay type: in vivo, Zea mays; details: Preemergence
How it was run: as §2

foxtail, giant = experiment: Test C pre-/postemergence herbicide test; assay type: in vivo, Setaria faberii; details: Preemergence
How it was run: as §2

corn [2] = experiment: Test A pre-/postemergence herbicide test; assay type: in vivo, Zea mays; details: Postemergence
How it was run: as §1

[3] = Postemergence, 125 g ai/ha, visual rating on 0 to 100 scale (0 no effect, 100 complete control), approx. 10 days
[4] = Postemergence, 500 g ai/ha, 0 to 100 scale (0 no effect, 100 complete control)
[5] = Preemergence, 125 g ai/ha, 0 to 100 scale where 0 is no effect and 100 is complete control
[6] = Preemergence, 500 g ai/ha, visual rating on 0 to 100 scale (0 no effect, 100 complete control)
[7] = 62 g ai/ha, scale 0 to 100 (0 no effect, 100 complete control)
[8] = 31 g ai/ha, scale 0 to 100, 0 is no effect and 100 is complete control
[9] = 125 g ai/ha, visual rating on 0 to 100 scale (0 no effect, 100 complete control), approx. 10 days
[10] = 500 g ai/ha, 0 to 100 scale (0 no effect, 100 complete control)

O=C1NCC(c2cccc(Br)c2)C1C(=O)Nc1ccccc1F (stereo not drawn) [Compound 307]
Plant response rating, Pigweed (pigweed; [3]): 0 | Plant response rating, Pigweed (pigweed; [4]): 0 | Plant response rating, Pigweed (pigweed; [5]): 0 | Pigweed plant response rating (pigweed; [6]): 0 | Soybean plant response rating (soybean; [7]): 0 | Plant response rating, Soybean (soybean; 125 g ai/ha, scale 0 to 100): 0 | Plant response rating (scale of 0 to 100), Soybean (soybean; 250 g ai/ha): 0 | Morningglory plant response rating (morningglory; [8]): 0 | Morningglory plant response rating (morningglory; [7]): 0 | Plant response rating, Morningglory (morningglory; 125 g ai/ha, scale 0 to 100): 0 | Plant response rating (scale of 0 to 100), Morningglory (morningglory; 250 g ai/ha): 0 | Plant response rating, Wheat (wheat; [9]): 0 | Plant response rating, Wheat (wheat; [10]): 30 | Galium plant response rating (galium; [8]): 0 | Galium plant response rating (galium; [7]): 0 | Plant response rating, Galium (galium; 125 g ai/ha, scale 0 to 100): 100 | Plant response rating (scale of 0 to 100), Galium (galium; 250 g ai/ha): 85 | Wheat plant response rating (wheat (winter wheat); [7]): 0 | Plant response rating, Wheat (wheat (winter wheat); 125 g ai/ha, scale 0 to 100): 5 | Plant response rating (scale of 0 to 100), Wheat (wheat (winter wheat); 250 g ai/ha): 15 | Plant response rating, Barnyardgrass (barnyardgrass; [3]): 70 | Plant response rating, Barnyardgrass (barnyardgrass; [4]): 90 | Plant response rating, Barnyardgrass (barnyardgrass; [5]): 80 | Barnyardgrass plant response rating (barnyardgrass; [6]): 90 | Johnsongrass plant response rating (johnsongrass; [8]): 0 | Johnsongrass plant response rating (johnsongrass; [7]): 0 | Plant response rating, Johnsongrass (johnsongrass; 125 g ai/ha, scale 0 to 100): 0 | Plant response rating (scale of 0 to 100), Johnsongrass (johnsongrass; 250 g ai/ha): 45 | Crabgrass, Large plant response rating (crabgrass, large; [8]): 90 | Crabgrass, Large plant response rating (crabgrass, large; [7]): 95 | Plant response rating, Crabgrass, Large (crabgrass, large; 125 g ai/ha, scale 0 to 100): 95 | Plant response rating (scale of 0 to 100), Crabgrass, Large (crabgrass, large; 250 g ai/ha): 100 | Ryegrass, Italian plant response rating (ryegrass, Italian; [7]): 0 | Plant response rating, Ryegrass, Italian (ryegrass, Italian; 125 g ai/ha, scale 0 to 100): 5 | Plant response rating (scale of 0 to 100), Ryegrass, Italian (ryegrass, Italian; 250 g ai/ha): 10 | Corn plant response rating (corn [1]; [8]): 0 | Corn plant response rating (corn [1]; [7]): 0 | Plant response rating, Corn (corn [1]; 125 g ai/ha, scale 0 to 100): 40 | Plant response rating (scale of 0 to 100), Corn (corn [1]; 250 g ai/ha): 40 | Foxtail, Giant plant response rating (foxtail, giant; [8]): 65 | Foxtail, Giant plant response rating (foxtail, giant; [7]): 85 | Plant response rating, Foxtail, Giant (foxtail, giant; 125 g ai/ha, scale 0 to 100): 85 | Plant response rating (scale of 0 to 100), Foxtail, Giant (foxtail, giant; 250 g ai/ha): 95 | Plant response rating, Corn (corn [2]; [9]): 0 | Plant response rating, Corn (corn [2]; [10]): 60
